# Results: PubChem BioAssay (NCI)
#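 Each compound was tested at five concentrations against cells in 96-well plates for 48 hours. Abbreviation: GI50, concentration required for 50% inhibition of growth. TGI denotes the concentration required for complete inhibition of growth.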
# How the values were obtained:
# Assay in all cases: DTP human tumour cell line panel, 48 h
# HCT-116 colon = test system: HCT-116 colon
# COLO 205 colon = test system: COLO 205 colon
# EKVX NSCLC = test system: EKVX NSCLC
# OVCAR-3 ovarian = test system: OVCAR-3 ovarian
# HT29 colon = test system: HT29 colon
# A498 renal = test system: A498 renal
# U251 CNS = test system: U251 CNS
# NCI-H23 lung = test system: NCI-H23 lung
# NCI/ADR-RES ovarian = test system: NCI/ADR-RES ovarian
# SN12C renal = test system: SN12C renal
# SK-MEL-5 melanoma = test system: SK-MEL-5 melanoma
# TK-10 renal = test system: TK-10 renal
# SW-620 colon = test system: SW-620 colon
# MOLT-4 leukemia = test system: MOLT-4 leukemia
# DU-145 prostate = test system: DU-145 prostate
# UACC-257 melanoma = test system: UACC-257 melanoma
# HS 578T breast = test system: HS 578T breast
# HCC-2998 colon = test system: HCC-2998 colon
# NCI-H460 lung = test system: NCI-H460 lung
# UACC-62 melanoma = test system: UACC-62 melanoma
# PC-3 prostate = test system: PC-3 prostate
# NCI-H226 lung = test system: NCI-H226 lung
# RXF 393 renal = test system: RXF 393 renal
# HOP-92 NSCLC = test system: HOP-92 NSCLC
# HOP-62 NSCLC = test system: HOP-62 NSCLC
# MALME-3M melanoma = test system: MALME-3M melanoma
# SF-295 CNS = test system: SF-295 CNS
# MDA-MB-231 breast = test system: MDA-MB-231 breast
# HCT-15 colon = test system: HCT-15 colon
# SF-539 CNS = test system: SF-539 CNS
# MCF7 breast = test system: MCF7 breast
# OVCAR-5 ovarian = test system: OVCAR-5 ovarian
# SK-MEL-28 melanoma = test system: SK-MEL-28 melanoma
# HL-60(TB) leukemia = test system: HL-60(TB) leukemia
# SF-268 CNS = test system: SF-268 CNS
# KM12 colon = test system: KM12 colon
# A549 NSCLC = test system: A549 NSCLC
# UO-31 renal = test system: UO-31 renal
# SK-MEL-2 melanoma = test system: SK-MEL-2 melanoma
# ACHN renal = test system: ACHN renal
# LOX IMVI melanoma = test system: LOX IMVI melanoma
# K-562 leukemia = test system: K-562 leukemia
# OVCAR-8 ovarian = test system: OVCAR-8 ovarian
# BT-549 breast = test system: BT-549 breast
# CAKI-1 renal = test system: CAKI-1 renal
# NCI-H522 lung = test system: NCI-H522 lung
# RPMI-8226 leukemia = test system: RPMI-8226 leukemia
# M14 melanoma = test system: M14 melanoma
# SK-OV-3 ovarian = test system: SK-OV-3 ovarian
# SR leukemia = test system: SR leukemia
# SNB-19 CNS = test system: SNB-19 CNS
# 786-0 renal = test system: 786-0 renal
# CCRF-CEM leukemia = test system: CCRF-CEM leukemia
# MDA-MB-435 = test system: MDA-MB-435
# T-47D breast = test system: T-47D breast
smiles,measurement,setting,value
CC(=O)OC1OC([C@@H]2c3cccc(O)c3C(=O)c3c(O)cc(C)cc32)C(O)C(O)C1O (some centres undefined),GI50,HCT-116 colon,108 nM
same,TGI,HCT-116 colon,1200 nM
same,GI50,COLO 205 colon,42.9 nM
same,TGI,COLO 205 colon,2680 nM
same,GI50,EKVX NSCLC,26 nM
same,TGI,EKVX NSCLC,368 nM
same,GI50,OVCAR-3 ovarian,< 18 nM
same,TGI,OVCAR-3 ovarian,48.5 nM
same,GI50,HT29 colon,59 nM
same,TGI,HT29 colon,> 100000 nM
same,GI50,A498 renal,44.4 nM
same,TGI,A498 renal,358 nM
same,GI50,U251 CNS,< 15.2 nM
same,TGI,U251 CNS,257 nM
same,GI50,NCI-H23 lung,< 19.9 nM
same,TGI,NCI-H23 lung,216 nM
same,GI50,NCI/ADR-RES ovarian,39.1 nM
same,TGI,NCI/ADR-RES ovarian,773 nM
same,GI50,SN12C renal,< 17.9 nM
same,TGI,SN12C renal,< 32.1 nM
same,GI50,SK-MEL-5 melanoma,< 11.9 nM
same,TGI,SK-MEL-5 melanoma,29.4 nM
same,GI50,TK-10 renal,28.6 nM
same,TGI,TK-10 renal,260 nM
same,GI50,SW-620 colon,23.1 nM
same,TGI,SW-620 colon,1730 nM
same,GI50,MOLT-4 leukemia,38.4 nM
same,TGI,MOLT-4 leukemia,662 nM
same,GI50,DU-145 prostate,137 nM
same,TGI,DU-145 prostate,1690 nM
same,GI50,UACC-257 melanoma,95.1 nM
same,TGI,UACC-257 melanoma,1330 nM
same,GI50,HS 578T breast,< 10.3 nM
same,GI50,HCC-2998 colon,< 10 nM
same,GI50,NCI-H460 lung,108 nM
same,GI50,UACC-62 melanoma,21.1 nM
same,TGI,UACC-62 melanoma,1520 nM
same,GI50,PC-3 prostate,< 10 nM
same,GI50,NCI-H226 lung,12 nM
same,TGI,NCI-H226 lung,80.6 nM
same,GI50,RXF 393 renal,350 nM
same,TGI,RXF 393 renal,1580 nM
same,GI50,HOP-92 NSCLC,23.3 nM
same,TGI,HOP-92 NSCLC,71.7 nM
same,GI50,HOP-62 NSCLC,98.5 nM
same,TGI,HOP-62 NSCLC,995 nM
same,GI50,MALME-3M melanoma,28.8 nM
same,TGI,MALME-3M melanoma,90.2 nM
same,GI50,SF-295 CNS,< 16.6 nM
same,TGI,SF-295 CNS,119 nM
same,GI50,MDA-MB-231 breast,< 15.3 nM
same,TGI,MDA-MB-231 breast,37.7 nM
same,GI50,HCT-15 colon,30.5 nM
same,TGI,HCT-15 colon,1460 nM
same,GI50,SF-539 CNS,41.9 nM
same,TGI,SF-539 CNS,1470 nM
same,GI50,MCF7 breast,282 nM
same,TGI,MCF7 breast,2780 nM
same,GI50,OVCAR-5 ovarian,32.3 nM
same,TGI,OVCAR-5 ovarian,360 nM
same,GI50,SK-MEL-28 melanoma,51.4 nM
same,TGI,SK-MEL-28 melanoma,3600 nM
same,GI50,HL-60(TB) leukemia,17.3 nM
same,TGI,HL-60(TB) leukemia,49.3 nM
same,GI50,SF-268 CNS,106 nM
same,TGI,SF-268 CNS,4520 nM
same,GI50,KM12 colon,< 10 nM
same,GI50,A549 NSCLC,109 nM
same,TGI,A549 NSCLC,1940 nM
same,GI50,UO-31 renal,41.9 nM
same,TGI,UO-31 renal,1110 nM
same,GI50,SK-MEL-2 melanoma,162 nM
same,TGI,SK-MEL-2 melanoma,2140 nM
same,GI50,ACHN renal,31.9 nM
same,TGI,ACHN renal,282 nM
same,GI50,LOX IMVI melanoma,< 14.1 nM
same,TGI,LOX IMVI melanoma,48.1 nM
same,GI50,K-562 leukemia,21.6 nM
same,TGI,K-562 leukemia,1390 nM
same,GI50,OVCAR-8 ovarian,122 nM
same,TGI,OVCAR-8 ovarian,4000 nM
same,GI50,BT-549 breast,18.1 nM
same,TGI,BT-549 breast,778 nM
same,GI50,CAKI-1 renal,26.9 nM
same,TGI,CAKI-1 renal,241 nM
same,TGI,NCI-H522 lung,382 nM
same,GI50,RPMI-8226 leukemia,< 15.3 nM
same,TGI,RPMI-8226 leukemia,< 29.2 nM
same,GI50,M14 melanoma,120 nM
same,TGI,M14 melanoma,1900 nM
same,GI50,SK-OV-3 ovarian,134 nM
same,TGI,SK-OV-3 ovarian,3170 nM
same,GI50,SR leukemia,32 nM
same,TGI,SR leukemia,85.9 nM
same,GI50,SNB-19 CNS,392 nM
same,TGI,SNB-19 CNS,21400 nM
same,GI50,786-0 renal,130 nM
same,TGI,786-0 renal,1270 nM
same,GI50,CCRF-CEM leukemia,49.4 nM
same,TGI,CCRF-CEM leukemia,1630 nM
same,GI50,MDA-MB-435,< 18.5 nM
same,TGI,MDA-MB-435,691 nM
same,GI50,T-47D breast,306 nM
same,TGI,T-47D breast,870 nM
